Where two headings read alike, the source gives them in different places.
Tests used:
Assay type in all cases: biochemical
C-src kinase = target: T1, C-src kinase (Homo sapiens, UniProt P12931); test: C-src kinase assay; details: for IC50: read-out: Inhibition of Protein Tyrosine Kinases, C-src, IC50; for inhibition at 50 µM: read-out: Inhibition of Protein Tyrosine Kinases, C-src, % Inhibition
T1 construct: made in house; host or cells: baculovirus-infected insect cells
Protocol: V-src and C-src Kinase Assays
V-src or C-src kinase is purified from baculovirus infected insect cell lysates using an antipeptide monoclonal antibody directed against the N-terminal 2-17 amino acids. The antibody, covalently linked to 0.65-μm latex beads, is added to a suspension of insect cell lysis buffer comprised of 150 mM NaCl, 50 mM Tris pH 7.5, 1 mM DTT, 1% NP-40, 2 mM EGTA, 1 mM sodium vanadate, 1 mM PMSF, 1 μg/mL each of leupeptin, pepstatin, and aprotinin. […] At the end of the lysate incubation, the beads are rinsed 3 times in lysis buffer, resuspended in lysis buffer containing 10% glycerol, and frozen. These latex beads are thawed, rinsed three times in assay buffer which is comprised of 40 mM tris pH 7.5, 5 mM MgCl2, and suspended in the same buffer. In a Millipore 96-well plate with a 0.65 μm polyvinylidine membrane bottom are added the reaction components: 10-μL v-src or c-src beads, 10 μL of 2.5 mg/mL poly GluTyr substrate, 5 μM ATP containing 0.2 μCi labeled ^32 P-ATP, 5μL DMSO containing inhibitors or as a solvent control, and buffer to make the final volume 125 μL. The reaction is started at room temperature by addition of the ATP and quenched 10 minutes later by the addition of 125 μL of 30% TCA, 0.1M sodium pyrophosphate for 5 minutes on ice. The plate is then filtered and the wells washed with two 250-μL aliquots of 15% TCA, 0.1M pyrophosphate. The filters are punched, counted in a liquid scintillation counter, and the data examined for inhibitory activity in comparison to a known inhibitor such as erbstatin. The method is described more fully in J. Med. Chem., 37:598-609 (1994).

[1] = target: T2, human FGF-1 (flg) receptor tyrosine kinase (Homo sapiens, UniProt P11362); test: FGF receptor tyrosine kinase assay; details: for IC50: read-out: Inhibition of Protein Tyrosine Kinases, FGF, IC50
T2 construct: a fragment of DNA that codes for the intracellular tyrosine kinase domain; made in house; host or cells: Sf9 insect cells (baculovirus), cell lysate
Source text: (§1) PDGF and FGF Receptor Tyrosine Kinase Assays
(§2) Full length cDNAs for the mouse PDGF-β and human FGF-1 (flg) receptor tyrosine kinases were obtained from J. Escobedo and prepared as described in J. Biol. Chem., 262:1482-1487 (1991), and PCR primers were designed to amplify a fragment of DNA that codes for the intracellular tyrosine kinase domain. The fragment was melded into a baculovirus vector, cotransfected with AcMNPV DNA, and the recombinant virus isolated. SF9 insect cells were infected with the virus to overexpress the protein, and the cell lysate was used for the assay. […] Briefly, to each well was added 82.5 μL of incubation buffer containing 25 mM Hepes (pH 7.0), 150 mM NaCl, 0.1% Triton X-100, 0.2 mM PMSF, 0.2 mM Na3 VO4, 10 mM MnCl2, and 750 μg/mL of Poly (4:1) glutamate-tyrosine followed by 2.5 μL of inhibitor and 5 μL of enzyme lysate (7.5 μg/μL FGF-TK or 6.0 μg/μL PDGF-TK) to initiate the reaction. Following a 10 minute incubation at 25° C., 10 μL of γ^32 P-ATP (0.4 μCi plus 50 μM ATP) was added to each well and samples were incubated for an additional 10 minutes at 25° C. The reaction was terminated by the addition of 100 μL of 30% trichloroacetic acid (TCA) containing 20 mM sodium pyrophosphate and precipitation of material onto glass fiber filter mats (Wallac). […] Nonspecific activity was defined as radioactivity retained on the filters following incubation of samples with buffer alone (no enzyme). Specific enzymatic activity was defined as total activity (enzyme plus buffer) minus nonspecific activity.

[2] = target: T3, mouse PDGF-β receptor tyrosine kinase (Mus musculus, UniProt P05622); test: PDGF receptor tyrosine kinase assay; details: for IC50: read-out: Inhibition of Protein Tyrosine Kinases, PDGF, IC50; for inhibition at 50 µM: read-out: Inhibition of Protein Tyrosine Kinases, PDGF, % Inhibition
T3 construct: a fragment of DNA that codes for the intracellular tyrosine kinase domain; made in house; host or cells: Sf9 insect cells (baculovirus), cell lysate
Source text: as §1, §2

T1 sequence (P12931 whole entry): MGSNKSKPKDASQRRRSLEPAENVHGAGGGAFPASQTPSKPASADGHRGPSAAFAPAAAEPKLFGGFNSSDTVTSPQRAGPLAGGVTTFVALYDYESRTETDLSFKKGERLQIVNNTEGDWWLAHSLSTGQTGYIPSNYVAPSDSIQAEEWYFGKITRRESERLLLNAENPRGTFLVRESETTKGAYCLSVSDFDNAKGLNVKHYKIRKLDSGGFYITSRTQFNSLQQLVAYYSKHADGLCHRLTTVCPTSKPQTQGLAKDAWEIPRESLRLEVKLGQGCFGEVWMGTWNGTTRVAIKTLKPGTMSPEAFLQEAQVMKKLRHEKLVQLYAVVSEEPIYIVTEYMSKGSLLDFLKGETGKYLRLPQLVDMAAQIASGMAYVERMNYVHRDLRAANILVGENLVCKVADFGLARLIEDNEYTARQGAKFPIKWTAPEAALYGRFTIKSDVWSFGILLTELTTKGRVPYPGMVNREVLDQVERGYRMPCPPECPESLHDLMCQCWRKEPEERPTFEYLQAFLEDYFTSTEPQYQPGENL
T2 sequence (P11362 478-767 limits assumed): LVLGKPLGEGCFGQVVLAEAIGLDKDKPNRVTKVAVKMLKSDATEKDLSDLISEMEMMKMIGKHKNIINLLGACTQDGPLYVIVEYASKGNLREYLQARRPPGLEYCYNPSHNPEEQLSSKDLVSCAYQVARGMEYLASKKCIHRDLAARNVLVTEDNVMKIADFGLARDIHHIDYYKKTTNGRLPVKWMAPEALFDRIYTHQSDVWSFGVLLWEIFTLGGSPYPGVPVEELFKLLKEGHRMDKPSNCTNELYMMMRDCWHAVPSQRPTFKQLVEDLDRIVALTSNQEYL
T3 sequence (P05622 599-961 limits assumed): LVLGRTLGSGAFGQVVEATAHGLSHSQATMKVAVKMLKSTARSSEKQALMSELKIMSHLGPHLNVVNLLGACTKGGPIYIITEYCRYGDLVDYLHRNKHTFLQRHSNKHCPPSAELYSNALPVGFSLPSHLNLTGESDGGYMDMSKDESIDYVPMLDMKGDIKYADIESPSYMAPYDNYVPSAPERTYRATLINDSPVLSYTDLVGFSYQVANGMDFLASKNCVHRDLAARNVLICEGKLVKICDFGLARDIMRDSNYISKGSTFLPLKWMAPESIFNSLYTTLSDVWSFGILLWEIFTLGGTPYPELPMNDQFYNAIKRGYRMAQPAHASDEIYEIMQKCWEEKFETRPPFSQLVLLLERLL

| IC50 (C-src kinase) | IC50 [1] | IC50 [2] | inhibition at 50 µM (C-src kinase; at 50 μM) | inhibition at 50 µM ([1]; at 50 μM, read-out: Inhibition of Protein Tyrosine Kinases, FGF, % Inhibition) | inhibition at 50 µM [2] | SMILES | inhibition at 50 µM (C-src kinase) |
| --- | --- | --- | --- | --- | --- | --- | --- |
| 11 nM | 91 nM | 405 nM |  |  |  | COc1ccccc1NC(=O)Nc1nc2nc(NCCCN3CCN(C)CC3)ncc2cc1-c1c(Cl)cccc1Cl [Example 43, 1-{6-(2,6-Dichlorophenyl)-2-[3-(4-methyl-piperazin-1-yl)-propylamino]-pyrido[2,3-d]pyrimidin-7-yl}-3-(2-methoxy-phenyl)-urea] |  |
| 23 nM | 196 nM | 1550 nM |  |  |  | CN1CCN(CCCNc2ncc3cc(-c4c(Cl)cccc4Cl)c(NC(=O)Nc4ccc(Br)cc4)nc3n2)CC1 [Example 44, 1-(4-Bromo-phenyl)-3-{6-(2,6-dichlorophenyl)-2-[3-(4-methyl-piperazin-1-yl)-propylamino]-pyrido[2,3-d]pyrimidin-7-yl}-urea] |  |
| 40 nM | 198 nM | 1850 nM |  |  |  | CN1CCN(CCCNc2ncc3cc(-c4c(Cl)cccc4Cl)c(NC(=O)Nc4ccc(Cl)cc4)nc3n2)CC1 [Example 45, 1-(4-Chloro-phenyl)-3-{6-(2,6-dichlorophenyl)-2-[3-(4-methyl-piperazin-1-yl)-propylamino]-pyrido[2,3-d]pyrimidin-7-yl}-urea] |  |
| 161 nM | 637 nM | 6170 nM |  |  |  | CCCCCCCCNC(=O)Nc1nc2nc(NCCCN3CCN(C)CC3)ncc2cc1-c1c(Cl)cccc1Cl [Example 47, 1-{6-(2,6-Dichlorophenyl)-2-[3-(4-methyl-piperazin-1-yl)-propylamino]-pyrido[2,3-d]pyrimidin-7-yl}-3-octyl-urea] |  |
| 260 nM | 613 nM | 5320 nM |  |  |  | CN1CCN(CCCNc2ncc3cc(-c4c(Cl)cccc4Cl)c(NC(=O)Nc4ccc(C(F)(F)F)cc4)nc3n2)CC1 [Example 48, 1-{6-(2,6-Dichlorophenyl)-2-[3-(4-methyl-piperazin-1-yl)-propylamino]-pyrido[2,3-d]pyrimidin-7-yl}-3-(4-trifluoromethyl-phenyl)-urea] |  |
| 24 nM | 53.5 nM | 420 nM |  |  |  | CCNC(=O)Nc1nc2nc(NCCCN3CCN(C)CC3)ncc2cc1-c1c(Cl)cccc1Cl [Example 49, 1-{6-(2,6-Dichlorophenyl)-2-[3-(4-methyl-piperazin-1-yl)-propylamino]-pyrido[2,3-d]pyrimidin-7-yl}-3-ethyl-urea] |  |
| 153 nM | 693 nM | 7080 nM |  |  |  | CCN(CC)CCCCNc1ncc2cc(-c3c(Cl)cccc3Cl)c(N)nc2n1 [Example 53, 6-(2,6-Dichlorophenyl)-N^2-(4-diethylamino-butyl)-pyrido[2,3-d]pyrimidine-2,7-diamine] |  |
|  | 3460 nM | 19000 nM | 110% |  |  | Nc1nc2nc(NCCCN3CCOCC3)ncc2cc1-c1c(Cl)cccc1Cl [Example 58, 6-(2,6-Dichlorophenyl)-N^2-(3-morpholin-4-yl-propyl)-pyrido[2,3-d]pyrimidine-2,7-diamine] |  |
| 764 nM | 7850 nM | 45600 nM |  |  |  | CCN(CC)CCCNc1ncc2cc(-c3c(Br)cccc3Br)c(N)nc2n1 [Example 61, 6-(2,6-Dibromo-phenyl)-N^2-[3-diethylamino-propyl)-pyrido[2,3-d]pyrimidine-2,7-diamine] |  |
| 1780 nM | 543 nM | 7010 nM |  |  |  | Nc1ncc2cc(-c3c(F)cccc3F)c(N)nc2n1 [Example 63, 6-(2,6-Difluoro-phenyl)-pyrido[2,3-d]pyrimidine-2,7-diamine] |  |
|  |  |  | 0% | 23.8% | 13% | COc1cccc(OC)c1-c1cc2cnc(N)nc2nc1N [Example 64, 6-(2,6-Dimethoxy-phenyl)-pyrido[2,3-d]pyrimidine-2,7-diamine] |  |
|  | 17000 nM |  | 95% |  | 29.6% | CCN(CC)CCNc1ncc2cc(-c3c(Cl)cccc3Cl)c(N)nc2n1 [Example 65, 6-(2,6-Dichlorophenyl)-N^2-(2-diethylamino-ethyl)-pyrido[2,3-d]pyrimidine-2,7-diamine] |  |
| 929 nM | 2590 nM | 31400 nM |  |  |  | CCN(CCO)CCCNc1ncc2cc(-c3c(Cl)cccc3Cl)c(N)nc2n1 [Example 70, 2-({3-[7-Amino-6-(2,6-dichlorophenyl)-pyrido[2,3-d]pyrimidin-2-ylamino]-propyl}-ethyl-amino)-ethanol] |  |
| 3990 nM | 4010 nM | 32900 nM |  |  |  | CCN(CC)CCCNc1ncc2cc(-c3c(Cl)cccc3Cl)c(N=CN(C)C)nc2n1 [Example 78, N'-[6-(2,6-Dichlorophenyl)-2-{3-(diethylamino)propyl-amino}pyrido[2,3-d]pyrimidin-7-yl]-N,N-dimethylformamidine] |  |
|  | 3710 nM | 4670 nM | 77.6% |  |  | CC(C)(C)NC(=O)Nc1nc2nc(N)ncc2cc1-c1ccccc1 [Example 82, 1-(2-Amino-6-phenyl-pyrido[2,3-d]pyrimidin-7-yl)-3-tert-butyl-urea] |  |
| 3820 nM | 162 nM | 2260 nM |  |  |  | CC(C)(C)NC(=O)Nc1nc2nc(N)ncc2cc1-c1cccc(Cl)c1Cl [Example 84, 1-[2-Amino-6-(2,3-dichlorophenyl)-pyrido[2,3-d]pyrimidin-7-yl]-3-tert-butyl-urea] |  |
| 4460 nM | 129 nM | 7630 nM |  |  |  | Nc1ncc2cc(-c3c(Cl)ccc(Cl)c3Cl)c(N)nc2n1 [Example 85, 6-(2,3,6-Trichloro-phenyl)-pyrido[2,3-d]pyrimidine-2,7-diamine] |  |
| 1410 nM | 114 nM | 2960 nM |  |  |  | CC(C)(C)NC(=O)Nc1nc2nc(N)ncc2cc1-c1c(Cl)ccc(Cl)c1Cl [Example 86, 1-[2-Amino-6-(2,3,6-trichloro-phenyl)-pyrido[2,3-d]pyrimidin-7-yl]-3-tert-butyl-urea] |  |
| 4170 nM | 343 nM | 6050 nM |  |  |  | Cc1cccc(-c2cc3cnc(N)nc3nc2NC(=O)NC(C)(C)C)c1C [Example 93, 1-[2-Amino-6-(2,3-dimethyl-phenyl)-pyrido[2,3-d]pyrimidin-7-yl]-3-tert-butyl-urea] |  |
|  | 605 nM | 41600 nM | 0% |  |  | Cc1cc(C)cc(-c2cc3cnc(N)nc3nc2NC(=O)NC(C)(C)C)c1 [Example 95, 1-[2-Amino-6-(3,5-dimethyl-phenyl)-pyrido[2,3-d]pyrimidin-7-yl]-3-tert-butyl-urea] |  |
|  | 1800 nM |  | 0.5% |  | 34.3% | Cc1cc(C)c(C)c(-c2cc3cnc(N)nc3nc2N)c1C [Example 98, 6-(2,3,5,6-Tetramethyl-phenyl)-pyrido[2,3-d]pyrimidine-2,7-diamine] |  |

| SMILES | IC50 (C-src kinase) | IC50 [1] | IC50 [2] | inhibition at 50 µM (C-src kinase; at 50 μM) | inhibition at 50 µM ([1]; at 50 μM, read-out: Inhibition of Protein Tyrosine Kinases, FGF, % Inhibition) | inhibition at 50 µM [2] | inhibition at 50 µM (C-src kinase) |
| --- | --- | --- | --- | --- | --- | --- | --- |
| CC(C)(C)NC(=O)Nc1nc2nc(N)ncc2cc1-c1c(F)cccc1F [Example 87, 1-[2-Amino-6-(2,6-difluoro-phenyl)-pyrido[2,3-d]pyrimidin-7-yl]-3-tert-butyl-urea] |  | 118 nM | 1880 nM |  |  |  | 92.7% |
| Cc1cc(C)c(-c2cc3cnc(N)nc3nc2NC(=O)NC(C)(C)C)c(C)c1 [Example 97, 1-[2-Amino-6-(2,4,6-trimethyl-phenyl)-pyrido[2,3-d]pyrimidin-7-yl]-3-tert-butyl-urea] |  | 340 nM | 1730 nM |  |  |  | 28.9% |

Reference: patent publication US5733913A, “6-Aryl pyrido[2,3-d] pyrimidines and naphthyridines for inhibiting protein tyrosine kinase mediated cellular proliferation” (priority 1995, dated 1998)
